Experimental data reported in patent US20260137697A1, “THIAZOLO[5,4-D]PYRIMIDINE COMPOUNDS, COMPOSITIONS COMPRISING THEM AND USES THEREOF” (University de Montreal, priority 2022, published 2026).

Key:
BRAF = target: T1, BRAF (Homo sapiens, UniProt P15056); test: BRAF kinase activity assay (ADP-Glo); format: biochemical; settings: Table 3; 10 μM ATP, kinase-dead MEK1 substrate
T1 construct: GST; purchased Millipore Sigma B4062-10UG
Outline: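 ADP-Glo luminescence read after 2 h reactions at 30° C containing 0.375 nM GST-kinase, kinase-dead MEK1 (75 nM), ATP at 10 μM, pH 7.5 HEPES/MgCl2/DTT, 0.05% DMSO. Compounds dosed from 100 to 0.01 nM (nine points); IC50 from variable-slope fit of % inhibition.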

A101D cells = test: Proliferation inhibition, CellTiter-Glo, A101D; format: cell-based, human; settings: Table D-1; A101D (BRAF V600E), 3 days; read-out: Prolif. (proliferation EC50)
Description: (§1) All cancer cell lines (A375, A101D, A2058, RKO, HT29 SK-MEL 30, IPC298, HepG2, HCT-116, Lovo, SW620, SW480, NCI-H358, NCI-H2122, Calu-6, NCIH2087, NCIH1755, NCIH1666 and Mewo) were obtained from ATCC and cultured in RPM1-1640 medium (Gibco) supplemented with 5% heat inactivated fetal bovine serum (FBS, Wisent) at 37° C. under 5% CO2. Cells were maintained in T175 flasks (Greiner). They were passaged by removing the culture medium, washing once in 10 mL of room temperature Phosphate Buffered Saline (PBS; Wisent) and incubating at 37° C. with 2 mL of 0.05% Trypsin (Thermo-Fisher). […]
(§2) After 3 days of incubation, the growth media were removed by aspiration and 60 μL of diluted CellTiter-Glo® reagent (10 μL CellTiter-Glo® reagent+50 μL of PBS) was added to each well. […] Luminescence signals were then acquired on a Synergy Neo2 plate reader (Biotek).
(§3) The effect of each compound dilution on the proliferation of cancer cell lines was expressed in % inhibition and calculated as follows. […]
(§4) The ability of each compound to inhibit proliferation was expressed as a EC50 value obtained by plotting the effect values for each data point of a dilution series and fitting the obtained curves using a log(agonist) versus response—variable slope (four parameters) function using GraphPadPrism (V7.0) or Dotmatics Screening Ultra platform.

A2058 cells = test: Proliferation inhibition, CellTiter-Glo, A2058; format: cell-based, human; settings: Table D-1; A2058 (BRAF V600E), 3 days; read-out: Prolif. (proliferation EC50)
Description: as §1, §2, §3, §4

T1 sequence (P15056 whole entry): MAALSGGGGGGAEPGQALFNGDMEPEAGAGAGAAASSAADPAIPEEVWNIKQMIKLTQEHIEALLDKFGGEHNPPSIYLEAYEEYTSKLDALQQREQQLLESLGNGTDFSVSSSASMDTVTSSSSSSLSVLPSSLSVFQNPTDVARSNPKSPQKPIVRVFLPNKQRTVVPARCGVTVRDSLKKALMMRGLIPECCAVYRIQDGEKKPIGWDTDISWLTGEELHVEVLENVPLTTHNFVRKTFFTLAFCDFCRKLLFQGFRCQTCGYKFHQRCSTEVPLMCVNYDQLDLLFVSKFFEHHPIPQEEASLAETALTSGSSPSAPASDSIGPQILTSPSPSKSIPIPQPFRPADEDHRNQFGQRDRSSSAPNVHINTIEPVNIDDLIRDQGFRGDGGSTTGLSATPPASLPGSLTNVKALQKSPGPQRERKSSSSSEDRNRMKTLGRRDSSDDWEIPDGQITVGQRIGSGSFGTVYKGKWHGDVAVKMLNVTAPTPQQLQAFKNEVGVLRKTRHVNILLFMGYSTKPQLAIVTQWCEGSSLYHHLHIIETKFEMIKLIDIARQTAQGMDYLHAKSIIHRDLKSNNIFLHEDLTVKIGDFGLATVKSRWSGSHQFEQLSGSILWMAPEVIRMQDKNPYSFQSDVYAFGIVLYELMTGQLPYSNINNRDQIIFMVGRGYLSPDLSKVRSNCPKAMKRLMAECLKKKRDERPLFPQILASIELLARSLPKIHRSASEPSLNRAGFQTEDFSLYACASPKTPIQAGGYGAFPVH

IC50 (BRAF) [nM]	SMILES	EC50 (A101D cells) [nM]	EC50 (A2058 cells) [nM]
< 1	Cc1c(F)cccc1S(=O)(=O)Nc1ccc(F)c(Nc2ncnc3sc(-n4cc(C(=O)N5C6CCC5CN(C)C6)c5ccccc54)nc23)c1F [Example 44]	< 300	< 300
1 to 10	N#CC1(c2cccc3c2ncn3-c2nc3c(Nc4c(F)ccc(NS(=O)(=O)c5cccc(Cl)c5Cl)c4F)ncnc3s2)CC1 [Example 122]	< 300	< 300
